Reference: patent US20230265098A1, “ALKYNE QUINAZOLINE DERIVATIVES AS INHIBITORS OF ERBB2” (EnLiven Therapeutics, Inc., priority 2020, published 2023)

What was measured:
[1] = target: T1, phosphorylated ERBB2 (pERBB2) (Homo sapiens, UniProt P04626); experiment: Detection of phosphorylated ERBB2 (pERBB2) by ELISA in BT-474 cells; format: cell-based; details: four hours incubation with compound, OD 450 nm
T1 construct: endogenous in cells; host or cells: BT-474
Procedure: BT-474 cells were seeded into a 96-well at 2.0*10^4 cells/100 μl/well.
Compounds were dissolved and serially diluted in DMSO. The compounds were then were added, mixed, and incubated for four hours at 37° C., 5% CO2. Compounds were added using four-fold dilutions at final concentrations ranging from 10 μM to 0.01 nM.
Following the four hour incubation with compounds, cell lysates were prepared. Plates were centrifuged for 5 min at 3000 RPM, and supernatant was removed from each well. Cells were washed 3 times by resuspension in 150 μl PBS, followed by centrifugation and removal of the supernatant, as above. […] Cells were incubated with lysis buffer for 1 hour at 4° C., and then stored at −80° C.
Enzyme-linked immunosorbent assays (ELISA) were performed to measure phosphorylated ERBB2 levels. […] The next day, plates were washed with PBS+0.05% Tween20 (PBST). 150 μl of 5% BSA blocking solution was added for 1 hour at room temperature, with shaking. Plates were washed with PBST. Cell lysates were thawed and 100 μl of lysate was added to the ELISA plate. The plates were incubated for 2 hours at room temperature, with shaking. […] Plates were incubated for 1 hour at room temperature, with shaking. Plates were then washed with PBST, and 100 μl TMB substrate solution (R&D Systems, cat #DY999) was added. Plate were incubated in the dark for 20 minutes at room temperature. 50 μl of Stop solution (R&D Systems, cat #DY994) (50 μl) was added to each well and mixed.
Optical density at 450 nm was read on an EnSpire plate reader (Perkin Elmer). The remaining kinase activity by calculated using the following formula: % Relative activity=100×(A450sample−A450LC)/(A450HC−A450LC). The low and high control values (“LC” and “HC”) were generated from lysate from wells without cells or with cells treated with 0.1% DMSO, respectively.

[2] = target: T2, phosphorylated EGFR (pEGFR) (Homo sapiens, UniProt P00533); experiment: Detection of phosphorylated EGFR (pEGFR) in EGF-stimulated A431 cells (AlphaLISA); format: cell-based; details: A431 cells (10% FBS), 4 hours with compound, then EGF 30 ng/mL for 10 minutes
T2 construct: endogenous in cells; host or cells: A431
Procedure: Enzyme-linked immunosorbent assays (ELISA) were performed to measure phosphorylated EGFR levels using A431 cells (10% FBS). A431 (1.0*10^4 cells/40 μl/well) cells were seeded in 384 well. Compounds were dissolved in DMSO, serially diluted in DMSO and then were added, mixed, and incubated for 4 hours at 37° C., 5% CO2. Following the 4-hours incubation, cells were stimulated for 10 minutes with EGF (Invitrogen, cat #PHG0311) at a final concentration of 30 ng/mL in the incubator. The media was aspirated and cells were lysed in 10 μL lysis buffer with protease and phosphatase inhibitors (PerkinElmer, cat #ALSU-PEGFR-A50K). The plates were placed on a shaker for 5 minutes and then incubated for 30 min at 4° C. for complete lysis. The lysate was transferred to an Optiplate (Perkin Elmer, cat #6007290).
Acceptor mix (PerkinElmer, cat #ALSU-PEGFR-A50K) was prepared just before use and 5 μL was dispensed to all the wells, followed by a 1.5-2 h incubation at room temperature in dark. The donor mix (PerkinElmer, cat #ALSU-PEGFR-A50K) was prepared under low light conditions prior to use and […] of donor mix was added to all the wells under subdued lighting or green filters. The plates were placed on a shaker for 5 min, sealed, and incubated overnight at room temperature in dark. Plates were read on the Envision (PerkinElmer) using standard AlphaLISA settings.
The percentage of inhibition on EGFR phosphorylation was calculated following equation: % Inhibition=100×(LumHC−LumSample)/(LumHC−LumLC). The low and high controls (LC/HC) are generated from lysate from wells with cells treated with DMSO or […] Staurosporine (BioAustralis, cat #BIA-S1086), […]. IC50 values were calculated by fitting the Curve using XLfit (v5.3.1.3), equation 201: Y=Bottom+(Top−Bottom)/(1+10^((LogIC50−X)*HillSlope)).

[3] = target: T3, Ba/F3 ERBB2 A775_G776insYVMA (Homo sapiens, UniProt P04626, DUP772-775, cells depend on it); experiment: Cell viability assay (CellTiter Glo); format: cell-based, mouse; details: 72 hours; 300 cells per well, 384-well plates (Table B5); read-out: Cell Line: Ba/F3 ERBB2 A775 G776ins YVMA IC50
T3 construct: Ba/F3 cell lines were engineered to express human ERBB2 or EGFR kinases, rendering the cells IL-3 independent
Procedure: Cells were treated with compounds, and cell viability was measured as a metric of kinase inhibition.
The Ba/F3 cell line is IL-3-dependent mouse cell line derived from the C3H mouse strain. Ba/F3 cell lines were engineered to express human ERBB2 or EGFR kinases, rendering the cells IL-3 independent. The lines were generated via retroviral transduction utilizing a Moloney murine leukemia virus (MMLV) promoter, and constructs are stably integrated into the cell genome.
Similarly, Ba/F3 cell lines engineered to express EGFR, ERBB2, or ERBB2 mutants were grown, harvested, counted and seeded at 3000 cells per well in 96-well plates for the data sets shown in Tables B3-B4, and seeded at 300 cells per well in 384-well plates for the data set shown in Table B5. A subset of wells contained media only (low control, “LC”).
Table B2 provides the growth media and number of cells seeded per well for the each cell line.
Compounds were dissolved in DMSO and serially diluted. Serially-diluted compound or a DMSO only control (high control, “HC”) was added to the plated cells in each well. […] The final proportion of DMSO never exceeded 0.1%.
Plates were placed in a 37° C., 5% CO2 incubator for 72 hours. Plates were then removed from the incubator and equilibrated for 15 minutes at room temperature. 40 IA of CellTiter Glo reagent (Promega) was added to measure the relative level of metabolically active cells by quantifying intracellular ATP concentrations. Plates were incubated for 30 minutes at room temperature, and luminescence was measured. Percent viability was normalized to a vehicle control only using the following formula: % viability=100×(LumSample−LumLC) (LumHC−LumLC). Graphical curves were fitted using a nonlinear regression model with a sigmoidal dose response.

T3 sequence (P04626 with tags, fused parts or gaps DUP772-775): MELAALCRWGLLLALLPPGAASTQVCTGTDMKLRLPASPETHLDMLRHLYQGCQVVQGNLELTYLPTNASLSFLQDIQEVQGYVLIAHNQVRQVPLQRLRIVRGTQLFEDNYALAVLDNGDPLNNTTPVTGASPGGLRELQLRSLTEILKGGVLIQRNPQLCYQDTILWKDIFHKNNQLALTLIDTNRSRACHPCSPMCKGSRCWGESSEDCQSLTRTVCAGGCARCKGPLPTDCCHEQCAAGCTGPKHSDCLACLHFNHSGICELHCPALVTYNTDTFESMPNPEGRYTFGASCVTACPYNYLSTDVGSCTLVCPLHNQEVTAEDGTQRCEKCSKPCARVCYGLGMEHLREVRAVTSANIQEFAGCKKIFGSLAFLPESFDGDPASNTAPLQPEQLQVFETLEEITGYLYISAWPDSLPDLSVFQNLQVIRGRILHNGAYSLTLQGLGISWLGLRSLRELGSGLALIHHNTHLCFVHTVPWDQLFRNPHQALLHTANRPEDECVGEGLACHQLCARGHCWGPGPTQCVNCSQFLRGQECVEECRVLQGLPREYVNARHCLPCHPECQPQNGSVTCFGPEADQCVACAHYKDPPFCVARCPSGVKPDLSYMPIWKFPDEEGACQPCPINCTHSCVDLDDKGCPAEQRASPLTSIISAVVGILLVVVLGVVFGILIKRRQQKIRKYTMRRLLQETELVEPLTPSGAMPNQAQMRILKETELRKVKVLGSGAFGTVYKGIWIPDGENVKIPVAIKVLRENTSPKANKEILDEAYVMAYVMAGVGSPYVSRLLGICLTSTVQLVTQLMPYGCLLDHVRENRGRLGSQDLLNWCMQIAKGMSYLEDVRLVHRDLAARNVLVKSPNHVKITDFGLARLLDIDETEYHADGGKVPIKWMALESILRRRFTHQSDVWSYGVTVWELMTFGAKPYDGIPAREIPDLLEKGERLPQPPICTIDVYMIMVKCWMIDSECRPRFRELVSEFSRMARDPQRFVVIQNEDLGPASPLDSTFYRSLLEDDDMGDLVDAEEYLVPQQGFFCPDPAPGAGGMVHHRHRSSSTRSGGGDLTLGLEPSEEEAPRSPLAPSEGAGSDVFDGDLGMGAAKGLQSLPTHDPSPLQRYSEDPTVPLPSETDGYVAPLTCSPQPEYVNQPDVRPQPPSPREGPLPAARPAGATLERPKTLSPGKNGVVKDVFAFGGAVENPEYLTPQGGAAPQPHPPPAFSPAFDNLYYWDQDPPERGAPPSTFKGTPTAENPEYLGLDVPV
T1 sequence (P04626 23-1255): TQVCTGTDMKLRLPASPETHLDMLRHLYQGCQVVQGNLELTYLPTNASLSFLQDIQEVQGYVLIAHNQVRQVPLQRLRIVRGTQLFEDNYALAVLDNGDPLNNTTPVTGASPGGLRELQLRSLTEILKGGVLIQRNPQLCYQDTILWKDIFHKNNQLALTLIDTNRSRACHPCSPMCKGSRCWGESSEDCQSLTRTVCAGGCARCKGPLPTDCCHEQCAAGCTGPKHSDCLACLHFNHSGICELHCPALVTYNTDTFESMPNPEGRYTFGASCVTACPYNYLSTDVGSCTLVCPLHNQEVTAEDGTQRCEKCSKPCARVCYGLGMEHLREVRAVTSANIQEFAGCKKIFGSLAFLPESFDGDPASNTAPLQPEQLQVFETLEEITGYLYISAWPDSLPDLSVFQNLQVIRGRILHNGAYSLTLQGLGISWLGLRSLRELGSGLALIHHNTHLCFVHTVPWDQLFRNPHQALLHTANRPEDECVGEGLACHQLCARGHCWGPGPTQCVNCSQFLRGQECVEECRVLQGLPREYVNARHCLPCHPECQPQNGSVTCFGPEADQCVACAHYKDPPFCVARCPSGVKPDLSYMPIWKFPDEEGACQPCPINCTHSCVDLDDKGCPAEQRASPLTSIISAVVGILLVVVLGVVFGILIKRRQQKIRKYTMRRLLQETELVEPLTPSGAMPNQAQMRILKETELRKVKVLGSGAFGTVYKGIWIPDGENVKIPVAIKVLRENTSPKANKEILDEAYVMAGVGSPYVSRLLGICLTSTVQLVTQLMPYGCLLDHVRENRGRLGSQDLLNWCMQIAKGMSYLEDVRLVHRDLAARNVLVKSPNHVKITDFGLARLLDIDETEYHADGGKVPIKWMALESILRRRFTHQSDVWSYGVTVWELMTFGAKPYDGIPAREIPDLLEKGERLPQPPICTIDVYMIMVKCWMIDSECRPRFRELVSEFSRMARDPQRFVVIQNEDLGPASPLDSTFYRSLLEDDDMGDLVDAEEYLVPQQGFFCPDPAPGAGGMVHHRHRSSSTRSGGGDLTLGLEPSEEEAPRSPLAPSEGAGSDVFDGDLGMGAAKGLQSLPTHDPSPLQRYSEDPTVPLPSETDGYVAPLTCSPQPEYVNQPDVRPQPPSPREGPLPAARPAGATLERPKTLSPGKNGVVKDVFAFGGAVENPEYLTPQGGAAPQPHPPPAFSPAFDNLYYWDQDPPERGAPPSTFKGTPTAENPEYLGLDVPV
T2 sequence (P00533 25-1210): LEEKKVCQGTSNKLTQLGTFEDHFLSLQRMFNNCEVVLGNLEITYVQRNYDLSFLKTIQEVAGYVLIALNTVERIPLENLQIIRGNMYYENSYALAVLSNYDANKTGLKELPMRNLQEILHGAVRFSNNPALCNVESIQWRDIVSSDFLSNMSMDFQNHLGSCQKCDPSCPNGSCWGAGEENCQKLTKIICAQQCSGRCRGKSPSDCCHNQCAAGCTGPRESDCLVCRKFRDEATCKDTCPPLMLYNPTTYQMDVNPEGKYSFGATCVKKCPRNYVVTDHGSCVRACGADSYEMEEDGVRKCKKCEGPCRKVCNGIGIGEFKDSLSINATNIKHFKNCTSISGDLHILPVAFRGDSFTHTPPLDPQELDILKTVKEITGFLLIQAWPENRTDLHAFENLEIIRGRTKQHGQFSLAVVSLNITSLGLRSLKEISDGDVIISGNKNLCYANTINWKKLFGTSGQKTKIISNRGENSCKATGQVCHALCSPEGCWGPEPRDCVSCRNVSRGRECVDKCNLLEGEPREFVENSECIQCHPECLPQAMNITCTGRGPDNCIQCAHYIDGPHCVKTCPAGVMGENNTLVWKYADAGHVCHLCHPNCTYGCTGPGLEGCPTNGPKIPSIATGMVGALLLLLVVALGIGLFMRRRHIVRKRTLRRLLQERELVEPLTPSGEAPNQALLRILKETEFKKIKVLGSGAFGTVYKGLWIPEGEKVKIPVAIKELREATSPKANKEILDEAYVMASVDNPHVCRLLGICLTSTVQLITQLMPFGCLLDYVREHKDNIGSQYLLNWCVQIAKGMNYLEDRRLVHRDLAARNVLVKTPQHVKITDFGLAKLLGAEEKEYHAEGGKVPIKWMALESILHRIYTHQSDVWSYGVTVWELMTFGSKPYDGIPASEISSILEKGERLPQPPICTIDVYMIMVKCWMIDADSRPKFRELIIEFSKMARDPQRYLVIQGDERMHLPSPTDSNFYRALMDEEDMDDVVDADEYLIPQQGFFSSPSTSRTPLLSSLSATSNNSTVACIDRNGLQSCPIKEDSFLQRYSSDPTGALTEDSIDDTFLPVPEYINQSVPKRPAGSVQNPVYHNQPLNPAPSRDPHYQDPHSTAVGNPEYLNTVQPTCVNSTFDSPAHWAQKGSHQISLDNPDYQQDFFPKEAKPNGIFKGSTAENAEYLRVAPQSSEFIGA

SMILES	IC50 [1] [nM]	IC50 [2] [nM]	GI50 [3] [nM]
CC#CC(=O)Nc1cc2c(Nc3ccc(Oc4ccn5ncnc5c4)c(C)c3)ncnc2cc1OCCNC [Compound 194, N-{4-[(3-methyl-4-{[1,2,4]triazolo[1,5-a]pyridin-7-yloxy}phenyl)amino]-7-[2-(methylamino)ethoxy]quinazolin-6-yl}but-2-ynamide]	18.2	804	32
CC#CC(=O)Nc1cc2c(Nc3ccc(Oc4ccn5ncnc5c4)c(C4CC4)c3)ncnc2cc1OCCN(C)C [Compound 195, N-{4-[(3-cyclopropyl-4-{[1,2,4]triazolo[1,5-a]pyridin-7-yloxy}phenyl)amino]-7-[2-(dimethylamino)ethoxy]quinazolin-6-yl}but-2-ynamide]	104	7070	86.8
CC#CC(=O)Nc1cc2c(Nc3ccc(Cc4ccn5ncnc5c4)c(C)c3)ncnc2cc1OCCN(C)C [Compound 196, N-(4-((4-([1,2,4]triazolo[1,5-a]pyridin-7-ylmethyl)-3-methylphenyl)amino)-7-(2-(dimethylamino)ethoxy)quinazolin-6-yl)but-2-ynamide]	8.36	943	9.96
CC#CC(=O)Nc1cc2c(Nc3ccc(Oc4ccn5ncnc5c4)c(F)c3)ncnc2cc1OCCN(C)C [Compound 198, N-(4-((4-([1,2,4]triazolo[1,5-a]pyridin-7-yloxy)-3-fluorophenyl)amino)-7-(2-(dimethylamino)ethoxy)quinazolin-6-yl)but-2-ynamide]	6.23	508	11.5
CC#CC(=O)Nc1cc2c(Nc3ccc(Oc4ccn5ncnc5c4)c(C)c3)ncnc2cn1 [Compound 199, N-(4-((4-([1,2,4]triazolo[1,5-a]pyridin-7-yloxy)-3-methylphenyl)amino)pyrido[3,4-d]pyrimidin-6-yl)but-2-ynamide]	4.7	57.5	2.51
CC#CC(=O)Nc1cc2c(Nc3ccc(Oc4ccn5ncnc5c4)c(Cl)c3)ncnc2cc1OCCN(C)C [Compound 200, N-(4-((4-([1,2,4]triazolo[1,5-a]pyridin-7-yloxy)-3-chlorophenyl)amino)-7-(2-(dimethylamino)ethoxy)quinazolin-6-yl)but-2-ynamide]	3.7	69.6	2.63
CC#CC(=O)Nc1cc2c(Nc3ccc(Oc4cnn(C)c(=O)c4)c(C)c3)ncnc2cc1OCCN(C)C [Compound 201, N-{7-[2-(dimethylamino)ethoxy]-4-({3-methyl-4-[(1-methyl-6-oxopyridazin-4-yl)oxy]phenyl}amino)quinazolin-6-yl}but-2-ynamide]	153	1970	346
CC#CC(=O)Nc1cc2c(Nc3ccc(Cc4ccn5ncnc5c4)c(F)c3)ncnc2cc1OCCN(C)C [Compound 202, N-{7-[2-(dimethylamino)ethoxy]-4-[(3-fluoro-4-{[1,2,4]triazolo[1,5-a]pyridin-7-ylmethyl}phenyl)amino]quinazolin-6-yl}but-2-ynamide]	21.8	543	49.4
CC#CC(=O)Nc1cc2c(Nc3ccc(Oc4ccn5ncnc5c4)c(C)c3)ncnc2cc1OCCN1CCN(C)CC1 [Compound 203, N-{4-[(3-methyl-4-{[1,2,4]triazolo[1,5-a]pyridin-7-yloxy}phenyl)amino]-7-[2-(4-methylpiperazin-1-yl)ethoxy]quinazolin-6-yl}but-2-ynamide]	6.05	45.5	5.11
CCOc1cc2ncnc(Nc3ccc(Oc4ccn5ncnc5c4)c(C)c3)c2cc1NC(=O)C#CCN1CCN(C)CC1 [Compound 208, N-{7-ethoxy-4-[(3-methyl-4-{[1,2,4]triazolo[1,5-a]pyridin-7-yloxy}phenyl)amino]quinazolin-6-yl}-4-(4-methylpiperazin-1-yl)but-2-ynamide triformate]	1180	2260	> 500
CC#CC(=O)Nc1c(OCCCN(C)C)cc2ncnc(Nc3ccc(Cc4ccn5ncnc5c4)c(C)c3)c2c1F [Compound 209, N-{7-[3-(dimethylamino)propoxy]-5-fluoro-4-[(3-methyl-4-{[1,2,4]triazolo[1,5-a]pyridin-7-ylmethyl}phenyl)amino]quinazolin-6-yl}but-2-ynamide]	1250	> 10000	> 500
CC#CC(=O)Nc1ccc2ncnc(Nc3cc(C)c(Oc4ccn5ncnc5c4)cc3F)c2c1F [Compound 210, N-{5-fluoro-4-[(2-fluoro-5-methyl-4-{[1,2,4]triazolo[1,5-a]pyridin-7-yloxy}phenyl)amino]quinazolin-6-yl}but-2-ynamide]	12.1	1850	10.8
CC#CC(=O)Nc1ccc2ncnc(Nc3ccc(Oc4ccc5nccnc5c4)c(C)c3)c2c1 [Compound 211, N-(4-{[3-methyl-4-(quinoxalin-6-yloxy)phenyl]amino}quinazolin-6-yl)but-2-ynamide]	36.6	101	3.2
CC#CC(=O)Nc1ccc2ncnc(Nc3ccc(Oc4ccc5c(c4)ncn5C)c(C)c3)c2c1 [Compound 212, N-[4-({3-methyl-4-[(1-methyl-1,3-benzodiazol-5-yl)oxy]phenyl}amino)quinazolin-6-yl]but-2-ynamide]	52.3	377	9.41
CC#CC(=O)Nc1ccc2ncnc(Nc3ccc(Oc4ccc5c(c4)ncn5C)c(C)c3)c2c1F [Compound 213, N-[5-fluoro-4-({3-methyl-4-[(1-methyl-1,3-benzodiazol-5-yl)oxy]phenyl}amino)quinazolin-6-yl]but-2-ynamide]	32.4	579	9.65
